Measurements from paper PMC5923123, “In Vitro and In Vivo Efficacy of a Novel and Long-Acting Fungicidal Azole, PC1244, on Aspergillus fumigatus Infection” (Antimicrobial Agents and Chemotherapy, 2018).
Converted amounts (≈) assume the structure as drawn. Read-outs that look alike come from different tables or passages of the source.

Legend:
[1] = system: sterol composition of A. fumigatus (NCPF2010); experiment: A. fumigatus sterol analysis (GC-MS); type: cell-based, Aspergillus fumigatus; details: 2 h
[2] = system: BEAS2B cells infected with A. fumigatus; experiment: Persistence of action in bronchial epithelial cells (galactomannan in supernatant); type: cell-based, Aspergillus fumigatus; details: for IC50: Aspergillus fumigatus, BEAS-2B, GM readout
Method: In a second system, the persistence of the action of the same three agents on A. fumigatus-infected bronchial epithelial cells was quantified using galactomannan (GM) production in the culture supernatant as an index of fungal growth. BEAS2B cells were infected with A. fumigatus, and the effects of a 24-h washout period (medium change) prior to infection were examined.
The persistence of action of the test agents was evaluated in immortalized bronchial epithelial cells (BEAS2B cells) as previously reported ([28]). […] The plate was incubated for exactly 1 h at 37°C in 5% CO2. After the incubation time had elapsed, all wells on the washout plate were aspirated and growth medium (100 μl/well) was added across the plate. […] The plate was incubated for exactly 1 h at 37°C in 5% CO2, after which A. fumigatus conidia were added across both plates at a final concentration of 1 × 10^3/well. […] This study was conducted in triplicate in three independent experiments.

[3] = system: A. fumigatus (ATCC 13073 [strain NIH 5233]); experiment: MIC against the strain used in vivo; type: cell-based; details: Aspergillus fumigatus, ATCC13073
[4] = system: A. fumigatus (ATCC 13073 [strain NIH 5233]); experiment: In vivo antifungal activity, late intervention (intranasal, days 1-3 postinfection), temporarily neutropenic mice; details: for inhibition of GM in serum: 0.08 mg/ml (2.8 μg/mouse) intranasal once daily days 1-3; for inhibition of fungal load (CFU) in the lung vs vehicle: 0.08 mg/ml, 35 μl intranasal once daily days 1-3 postinfection
[5] = system: Aspergillus terreus (AT49, AT7130); experiment: EUCAST MIC; type: cell-based
[6] = system: Candida krusei (ATCC 6258); experiment: CLSI MIC; type: cell-based; details: Pichia kudriavzevii, ATCC6258
[7] = system: Candida parapsilosis (ATCC 22019); experiment: CLSI MIC; type: cell-based; details: ATCC22019, 1 strain, MIC = 50% inhibition of fungal growth
[8] = system: Chaetomium globosum (ATCC 44699); experiment: CLSI MIC; type: cell-based; details: ATCC44699, 1 strain
[9] = system: Cryptococcus gattii (clinical isolate); experiment: EUCAST MIC (EDef 7.2); type: cell-based; details: 1 strain
[10] = system: Mucor circinelloides (ATCC 8542); experiment: CLSI MIC; type: cell-based; details: ATCC8542, 1 strain
[11] = system: 23 pathogenic fungi; type: cell-based; details: broad spectrum of pathogenic fungi
[12] = in vivo
[13] = in vivo; details: mouse
[14] = target: A. fumigatus CYP51A (Aspergillus fumigatus, UniProt Q4WNT5); experiment: CYP51 reconstitution assay (sterol 14α-demethylase inhibition)
A. fumigatus CYP51A, sequence (Q4WNT5 whole entry): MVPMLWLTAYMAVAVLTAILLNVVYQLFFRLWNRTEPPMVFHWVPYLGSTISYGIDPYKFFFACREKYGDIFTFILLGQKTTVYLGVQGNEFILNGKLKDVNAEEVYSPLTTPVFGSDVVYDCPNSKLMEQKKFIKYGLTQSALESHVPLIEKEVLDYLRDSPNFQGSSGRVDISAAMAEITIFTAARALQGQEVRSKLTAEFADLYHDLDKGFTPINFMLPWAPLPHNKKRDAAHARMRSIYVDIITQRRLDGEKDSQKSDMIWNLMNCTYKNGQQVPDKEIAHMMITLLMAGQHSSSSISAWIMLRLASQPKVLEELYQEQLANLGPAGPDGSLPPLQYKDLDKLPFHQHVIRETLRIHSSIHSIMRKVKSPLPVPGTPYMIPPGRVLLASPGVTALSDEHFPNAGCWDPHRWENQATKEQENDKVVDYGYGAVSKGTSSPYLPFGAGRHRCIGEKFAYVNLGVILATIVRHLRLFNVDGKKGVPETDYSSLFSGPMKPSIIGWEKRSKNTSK
Method: (§1) The test agent was added to a mixture of 0.5 μM CYP51, 1 μM A. fumigatus cytochrome P450 reductase isoenzyme 1 (AfCPR1), 50 μM eburicol, 4% (wt/vol) 2-hydroxypropyl-β-cyclodextrin, 0.4 mg/ml isocitrate dehydrogenase, 25 mM trisodium isocitrate, 50 mM NaCl, 5 mM MgCl2, and 40 mM 3-(N-morpholino) propanesulfonic acid (MOPS; pH of ∼7.2). The mixtures were then incubated at 37°C for 10 min prior to initiation with 4 mM β-NADPHNa4, followed by shaking for 20 min at 37°C. Sterol metabolites were recovered by extraction with ethyl acetate followed by derivatization with 0.1 ml N,O-bis(trimethylsilyl)trifluoroacetamide: trimethylchlorosilane (99:1) and 0.3 ml anhydrous pyridine prior to analysis by gas chromatography-mass spectrometry.

[15] = target: A. fumigatus CYP51B (Aspergillus fumigatus, UniProt E9QY26); experiment: as above
A. fumigatus CYP51B, sequence (E9QY26 whole entry): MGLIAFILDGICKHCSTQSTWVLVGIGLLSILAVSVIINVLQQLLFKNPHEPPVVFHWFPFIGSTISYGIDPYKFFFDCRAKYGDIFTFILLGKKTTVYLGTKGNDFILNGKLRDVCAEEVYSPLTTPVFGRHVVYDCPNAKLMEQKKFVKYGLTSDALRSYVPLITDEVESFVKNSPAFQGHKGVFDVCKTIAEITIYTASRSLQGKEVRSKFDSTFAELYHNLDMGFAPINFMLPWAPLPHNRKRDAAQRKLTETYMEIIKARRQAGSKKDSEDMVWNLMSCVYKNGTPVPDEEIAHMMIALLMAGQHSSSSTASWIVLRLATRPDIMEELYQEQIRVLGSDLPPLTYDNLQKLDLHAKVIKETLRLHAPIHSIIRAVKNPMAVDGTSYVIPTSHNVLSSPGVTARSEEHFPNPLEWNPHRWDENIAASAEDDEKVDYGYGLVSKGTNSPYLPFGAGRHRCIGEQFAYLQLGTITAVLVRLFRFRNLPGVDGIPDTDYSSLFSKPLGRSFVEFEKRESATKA
Method: as §1

[16] = system: A. fumigatus (ATCC 13073 [strain NIH 5233]); experiment: In vivo extended prophylaxis (intranasal, days -7 to 0) in infected immunocompromised mice; details: 0.0032 mg/ml (0.11 μg/mouse), compared to late intervention at the same dose
Method: The test agents, suspended in physiological saline, were administered intranasally (35 μl, approximately 17.5 μl each in each nostril) once daily on days 1, 2, and 3 postinfection. […] As the injection volume was fixed and the body weight changed every day, especially after infection, the accurate dose unit was the number of micrograms per mouse. However, as the average body weight after immunosuppression and just before infection was 20 g, we also calculated the estimated dose in milligrams per kilogram.

[17] = system: A. fumigatus (ATCC 13073); experiment: In vivo persistence of action: single intranasal prophylactic dose 16 h before inoculation; details: PC1244 0.4 mg/ml, POS 0.8 mg/ml intranasal 16 h before inoculation; lungs 8 h after
[18] = system: Candida albicans AR (20183.073, 20186.025); experiment: CLSI MIC; type: cell-based
[19] = system: Candida glabrata (ATCC 36583, R363); experiment: CLSI MIC; type: cell-based; details: Nakaseomyces glabratus
[20] = system: A. fumigatus isolates; parameters: method as in PMID 12202554; details: MFC = lowest dilution yielding less than 3 colonies; cited from earlier work
[21] = system: A. fumigatus ATCC 204305; experiment: EUCAST MIC, quality control strain; type: cell-based; details: Aspergillus fumigatus, ATCC204305; quality control strain ATCC 204305
Text: The antifungal activity of PC1244 was further evaluated against 96 clinical isolates (obtained from Saint Louis Hospital, Paris, France [50 isolates], and the North West England Mycology Reference Centre, Manchester, UK [46 isolates]). […] .

[22] = 1 h contact before infection, no washout, read-out: BEAS2B cells IC50 No washout
[23] = 1 h contact then 24-h washout before infection, read-out: BEAS2B cells IC50 Washout
[24] = EUCAST, 2 strains, mean MIC, read-out: MIC

Cc1cc(N2CCN(c3ccc(C(=O)N[C@H]4CCCC[C@@H]4O)cc3)CC2)ccc1OC[C@@H]1CO[C@@](Cn2cncn2)(c2ccc(F)cc2F)C1 [PC1244, 4-(4-(4-(((3R,5R)-5-((1H-1,2,4-triazol-1-yl)methyl)-5-(2,4-difluorophenyl)tetrahydrofuran-3-yl)methoxy)-3-methylphenyl)piperazin-1-yl)-N-((1S,2S)-2-hydroxycyclohexyl)benzamide]
Sterol composition: Eburicol ([1]; compound at 0.0001 μg/ml): 2.5 ± 1.1%
Sterol composition: Ergost-5,7-dienol ([1]; compound at 0.0001 μg/ml): 4.6 ± 1.8%
Sterol composition: Ergosterol ([1]; compound at 0.0001 μg/ml): 91.3 ± 0.1%
Sterol composition: Lanosterol ([1]; compound at 0.0001 μg/ml): 1.7 ± 0.7%
Sterol composition: Eburicol ([1]; compound at 0.001 μg/ml): 3.4 ± 1.2%
Sterol composition: Ergost-5,7-dienol ([1]; compound at 0.001 μg/ml): 4.6 ± 0.8%
Sterol composition: Ergosterol ([1]; compound at 0.001 μg/ml): 89.2 ± 0.2%
Sterol composition: Lanosterol ([1]; compound at 0.001 μg/ml): 2.8 ± 0.6%
Sterol composition: Eburicol ([1]; compound at 0.01 μg/ml): 14.7 ± 1.5%
Sterol composition: Ergost-5,7-dienol ([1]; compound at 0.01 μg/ml): 0%
Sterol composition: Ergosterol ([1]; compound at 0.01 μg/ml): 76.8 ± 2.6%
Sterol composition: Lanosterol ([1]; compound at 0.01 μg/ml): 8.5 ± 1.1%
Sterol composition: Eburicol ([1]; compound at 0.1 μg/ml): 26.7 ± 0.8%
Sterol composition: Ergost-5,7-dienol ([1]; compound at 0.1 μg/ml): 0%
Sterol composition: Ergosterol ([1]; compound at 0.1 μg/ml): 61.0 ± 1.6%
Sterol composition: Lanosterol ([1]; compound at 0.1 μg/ml): 12.3 ± 0.8%
Sterol composition: Eburicol ([1]; compound at 1 μg/ml): 28.2 ± 1.3%
Sterol composition: Ergost-5,7-dienol ([1]; compound at 1 μg/ml): 0%
Sterol composition: Ergosterol ([1]; compound at 1 μg/ml): 58.7 ± 2.2%
Sterol composition: Lanosterol ([1]; compound at 1 μg/ml): 13.1 ± 0.9%
IC50 [2, 22]: 0.0034 µg/mL (≈ 0.00495 µM)
IC50 [2, 23]: 0.018 µg/mL (≈ 0.0262 µM)
MIC ([3]; strain ATCC 13073, read-out: MIC): 0.063 µg/mL (≈ 0.0917 µM)
inhibition of GM in serum [4]: 82%
inhibition of fungal load (CFU) in the lung vs vehicle [4]: 97%
CXCL1 level in BALF ([4]; infection-dependent increase): reduced
interleukin-6 (IL-6) level in serum ([4]; infection-dependent increase): reduced
tumor necrosis factor alpha (TNF-α) level in serum ([4]; infection-dependent increase): reduced
ID50 (GM in BALF) fold lower than that of POS ([4]; mouse, in vivo): 6.7 fold
A. fumigatus PCR products in lung tissue ([4]; pilot study): inhibited the accumulation of PCR products
MIC [5, 24]: 0.38 µg/mL (≈ 0.553 µM)
MIC ([6]; CLSI, 1 strain, read-out: MIC): 0.13 µg/mL (≈ 0.189 µM)
MIC [7]: 0.25 µg/mL (≈ 0.364 µM)
MIC [8]: 0.063 µg/mL (≈ 0.0917 µM)
MIC [9]: 0.5 µg/mL (≈ 0.728 µM)
MIC [10]: 2 µg/mL (≈ 2.91 µM)
MIC Range [11]: <0.0078 to 2 µg/mL
oral availability [12]: much less oral availability than posaconazole
concentration at 2 h [13]: 111 to 303 ng/mL
concentration at 8 h [13]: 249 to 339 ng/mL
concentration at 24 h [13]: 41.5 to 50.7 ng/mL
IC50 [14]: 270 nM
Ki [14]: < 1 nM
IC50 [15]: 230 nM
Ki [15]: < 1 nM
effect on fungal load and biomarkers [16]: high levels of inhibitory effects
GM levels in the lung [17]: significant inhibition
number of CFU in the lung [17]: significant inhibition

C[C@@H](c1ncncc1F)[C@](O)(Cn1cncn1)c1ccc(F)cc1F [Voriconazole, voriconazole]
IC50 [2, 22]: 0.054 µg/mL (≈ 0.155 µM)
IC50 [2, 23]: > 1 µg/mL
activity after 1-h contact and 24-h washout ([2]; BEAS2B cells): ineffective
MIC [3]: 0.5 µg/mL (≈ 1.43 µM)
MIC [5]: 1 µg/mL (≈ 2.86 µM)
MIC [18]: 10 µg/mL (≈ 28.6 µM)
MIC ([19]; ATCC36583): 8.13 µg/mL (≈ 23.3 µM)
MIC [6]: 0.25 µg/mL (≈ 0.716 µM)
MIC [8]: 1 µg/mL (≈ 2.86 µM)
MIC [10]: > 8 µg/mL
range of MFCs for inhibition of 90% of isolates tested (MFC90) [20]: 0.5 to 4 µg/mL

CC[C@@H]([C@H](C)O)n1ncn(-c2ccc(N3CCN(c4ccc(OC[C@@H]5CO[C@@](Cn6cncn6)(c6ccc(F)cc6F)C5)cc4)CC3)cc2)c1=O [Posaconazole, posaconazole]
MIC [21]: 0.25 µg/mL (≈ 0.357 µM)
Sterol composition: Eburicol ([1]; compound at 0.0001 μg/ml): 2.2 ± 1.2%
Sterol composition: Ergost-5,7-dienol ([1]; compound at 0.0001 μg/ml): 3.3 ± 1.9%
Sterol composition: Ergosterol ([1]; compound at 0.0001 μg/ml): 94.5 ± 0.1%
Sterol composition: Lanosterol ([1]; compound at 0.0001 μg/ml): 0%
Sterol composition: Eburicol ([1]; compound at 0.001 μg/ml): 5.9 ± 0.5%
Sterol composition: Ergost-5,7-dienol ([1]; compound at 0.001 μg/ml): 3.9 ± 0.6%
Sterol composition: Ergosterol ([1]; compound at 0.001 μg/ml): 87.2 ± 0.7%
Sterol composition: Lanosterol ([1]; compound at 0.001 μg/ml): 3.0 ± 0.9%
Sterol composition: Eburicol ([1]; compound at 0.01 μg/ml): 18.3 ± 1.1%
Sterol composition: Ergost-5,7-dienol ([1]; compound at 0.01 μg/ml): 0%
Sterol composition: Ergosterol ([1]; compound at 0.01 μg/ml): 74.7 ± 0.8%
Sterol composition: Lanosterol ([1]; compound at 0.01 μg/ml): 7.0 ± 0.3%
Sterol composition: Eburicol ([1]; compound at 0.1 μg/ml): 23.4 ± 0.8%
Sterol composition: Ergost-5,7-dienol ([1]; compound at 0.1 μg/ml): 0%
Sterol composition: Ergosterol ([1]; compound at 0.1 μg/ml): 67.8 ± 0.3%
Sterol composition: Lanosterol ([1]; compound at 0.1 μg/ml): 8.8 ± 0.5%
Sterol composition: Eburicol ([1]; compound at 1 μg/ml): 23.8 ± 1.3%
Sterol composition: Ergost-5,7-dienol ([1]; compound at 1 μg/ml): 0%
Sterol composition: Ergosterol ([1]; compound at 1 μg/ml): 67.4 ± 1.5%
Sterol composition: Lanosterol ([1]; compound at 1 μg/ml): 8.8 ± 0.4%
IC50 [2, 22]: 0.0031 µg/mL (≈ 0.00442 µM)
IC50 [2, 23]: 0.046 µg/mL (≈ 0.0656 µM)
inhibition of GM in serum [4]: −11%
inhibition of fungal load (CFU) in the lung vs vehicle [4]: 39%
log10 ID fold higher than that of PC1244 ([4]; mouse, in vivo): 143 fold
MIC [5, 24]: 0.093 µg/mL (≈ 0.133 µM)
MIC ([18]; CLSI, 2 azole (fluconazole and voriconazole) resistant strains, MIC = 50% inhibition, two individual values for PC1244, read-out: MIC): 8.13 µg/mL (≈ 11.6 µM)
MIC ([19]; ATCC36583, CLSI, 2 strains, MIC = 50% inhibition, two individual values for PC1244, read-out: MIC): 0.5 µg/mL (≈ 0.713 µM)
MIC [7]: 0.25 µg/mL (≈ 0.357 µM)
MIC [8]: 0.25 µg/mL (≈ 0.357 µM)
MIC [9]: 0.5 µg/mL (≈ 0.713 µM)
MIC [10]: > 8 µg/mL
range of MFCs for inhibition of 90% of isolates tested (MFC90) [20]: 0.06 to 2 µg/mL
concentration at 24 h [13]: 15.6 to 125 ng/mL
Ki [14]: < 1 nM
Ki [15]: < 1 nM
number of CFU in the lung [17]: did not
